{
  "source": "paper doi:10.1101/2025.10.21.683780",
  "about": "(bioRxiv, 2025)",
  "key": {"OAT4": {"biological_target": "T1, OAT4 (Homo sapiens, UniProt Q9NSA0)", "T1 construct": "gene SLC22A11", "T1 sequence (Q9NSA0 1-550)": "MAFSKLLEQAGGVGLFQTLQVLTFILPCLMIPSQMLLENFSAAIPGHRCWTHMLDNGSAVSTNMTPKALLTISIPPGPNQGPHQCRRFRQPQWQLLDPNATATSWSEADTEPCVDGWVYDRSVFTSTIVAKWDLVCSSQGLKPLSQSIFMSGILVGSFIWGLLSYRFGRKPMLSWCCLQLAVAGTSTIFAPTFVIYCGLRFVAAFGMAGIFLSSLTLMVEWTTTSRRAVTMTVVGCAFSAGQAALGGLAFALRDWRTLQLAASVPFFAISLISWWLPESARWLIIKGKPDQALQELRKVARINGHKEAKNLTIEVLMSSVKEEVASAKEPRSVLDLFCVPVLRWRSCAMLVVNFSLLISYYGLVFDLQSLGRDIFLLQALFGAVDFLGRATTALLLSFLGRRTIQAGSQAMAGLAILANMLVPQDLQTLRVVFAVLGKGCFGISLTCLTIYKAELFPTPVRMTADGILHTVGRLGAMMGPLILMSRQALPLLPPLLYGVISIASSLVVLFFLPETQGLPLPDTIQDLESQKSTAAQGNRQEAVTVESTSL", "experiment": "inhibition of methotrexate uptake in OAT4-expressing HEK293 cells; also transported", "assay_type": "cell-based", "conditions": "read-out: Dicloxacillin / IC50 (95% CI)"}, "OATP1B3": {"biological_target": "T2, OATP1B3 (Homo sapiens, UniProt Q9NPD5)", "T2 construct": "gene SLCO1B3", "T2 sequence (Q9NPD5 1-702)": "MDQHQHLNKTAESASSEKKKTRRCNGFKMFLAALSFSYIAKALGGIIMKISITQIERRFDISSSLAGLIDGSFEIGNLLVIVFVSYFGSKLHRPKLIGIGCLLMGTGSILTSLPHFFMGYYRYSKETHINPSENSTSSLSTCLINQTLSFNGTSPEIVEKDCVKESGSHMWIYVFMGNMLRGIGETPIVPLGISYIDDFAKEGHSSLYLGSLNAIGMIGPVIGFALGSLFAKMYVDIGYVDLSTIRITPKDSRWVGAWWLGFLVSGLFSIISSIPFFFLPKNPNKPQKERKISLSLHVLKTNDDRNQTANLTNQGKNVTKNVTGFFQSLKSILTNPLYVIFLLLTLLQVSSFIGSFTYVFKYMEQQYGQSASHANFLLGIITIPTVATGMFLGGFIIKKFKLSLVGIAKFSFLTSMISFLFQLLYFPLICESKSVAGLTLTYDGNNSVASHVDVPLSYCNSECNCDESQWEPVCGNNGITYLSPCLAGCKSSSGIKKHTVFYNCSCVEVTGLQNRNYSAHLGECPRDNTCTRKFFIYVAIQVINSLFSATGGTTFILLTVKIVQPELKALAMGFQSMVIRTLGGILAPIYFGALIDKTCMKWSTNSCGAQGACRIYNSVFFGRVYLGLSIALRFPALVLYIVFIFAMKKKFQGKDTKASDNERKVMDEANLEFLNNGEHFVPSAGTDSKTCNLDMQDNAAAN", "assay_type": "cell-based", "conditions": "hek293 cells"}},
  "data": [
    {"compound": "Cc1onc(-c2c(Cl)cccc2Cl)c1C(=O)N[C@@H]1C(=O)N2[C@@H]1SC(C)(C)[C@@H]2C(=O)O", "note": "[dicloxacillin]", "values": [
      {"measurement": "IC50", "setting": "OAT4", "value": 7.23, "unit": "µM"},
      {"measurement": "IC50", "setting": "OATP1B3", "value": 6.68, "unit": "µM"}
    ]}
  ]
}
